Here are results for 8 compounds from ChEMBL document CHEMBL3108775, “Rescuing biological activity from synthetic phakellistatin 19” (J Med Chem, 2013).

The subject of test [1] is A549. Briefly: Cytotoxicity against human A549 cells by MTT assay. The test is classed as functional.
Test [2] deals with MDA-MB-231. Briefly: Cytotoxicity against human MDA-MB-231 cells by MTT assay. Type of test: functional. For orientation: Tetrazolium dyes change colour on reduction, which living cells bring about.
The test system of test [3] is HT-29. Briefly: Cytotoxicity against human HT-29 cells by MTT assay. Type of test: functional.
Test [4] deals with HT-29. Briefly: Antimitotic activity against human HT-29 cells. Type of test: functional, cell-based.
In test [5] the test system is MDA-MB-231. Briefly: Antimitotic activity against human MDA-MB-231 cells. The test is classed as functional, cell-based.
Test [6] relates to A549. Briefly: Antimitotic activity against human A549 cells. The test is classed as functional, cell-based.

Numbered stars: 1 amine (or outer) side, 2 acyl side, 3 side chain; on linkers, the order of the positions; unused ones are H or OH. Square brackets hold non-standard residues; d marks the D form. Peptide text beside a SMILES is read from it. X1 = CC1(C)SC[C@@H](C(=O)[*:2])N1[*:1] Where only a bound is given, the exact number is not on record here.

One may read the GI50 as the concentration giving 50% growth inhibition. Read a high GI50 as lower sensitivity of the cells. A word on the LC50: it is the concentration that kills 50% of the test population. Read a high LC50 as lower toxicity. For orientation: TGI means the concentration at which net growth stops. As to `CC[C@H](C)[C@@H]1NC(=O)[C@@H]2CCCN2C(=O)[C@H]([C@@H](C)O)NC(=O)[C@H](CC(C)C)NC(=O)[C@@H]2CSC(C)(C)N2C(=O)[C@H](Cc2ccccc2)NC(=O)[C@H](Cc2c[nH]c3ccccc23)NC(=O)[C@@H]2CSC(C)(C)N2C1=O` (cyclo(F[X1]LTPI[X1]W)), in the test with A549 [1], the GI50 was more than 9.58 µM, the LC50 was more than 9.58 µM and the TGI was more than 9.58 µM. For the same compound, in the test with MDA-MB-231 [2], the GI50 was 5650 nM, the median lethal concentration (LC50) is more than 9.58 µM and the concentration for total growth inhibition (TGI) is more than 9.58 µM. In the test on HT-29 [3], the GI50 turned out to be 3160 nM, the LC50 is more than 9.58 µM and the TGI amounted to 6610 nM.

Consider `CC[C@H](C)[C@@H]1NC(=O)[C@@H]2CCCN2C(=O)[C@H]([C@@H](C)O)NC(=O)[C@H](CC(C)C)NC(=O)[C@@H]2CCCN2C(=O)[C@H](Cc2ccccc2)NC(=O)[C@H](Cc2c[nH]c3ccccc23)NC(=O)[C@@H]2CSC(C)(C)N2C1=O` (cyclo(FPLTPI[X1]W)), for which, in the test with A549 [1], the GI50 is more than 10 µM, the median lethal concentration (LC50) was more than 10 µM and the TGI is more than 10 µM. In the test on MDA-MB-231 [2], this compound registered a GI50 of more than 10000 nM, an LC50 of more than 10 µM and a concentration for total growth inhibition (TGI) of more than 10 µM. In the test with HT-29 [3], the concentration for 50% growth inhibition (GI50) is more than 10000 nM, the LC50 was more than 10 µM and the TGI was more than 10000 nM.

In the test with A549 [1], `CC[C@H](C)[C@@H]1NC(=O)[C@@H]2CSC(C)(C)N2C(=O)[C@H]([C@@H](C)O)NC(=O)[C@H](CC(C)C)NC(=O)[C@@H]2CSC(C)(C)N2C(=O)[C@H](Cc2ccccc2)NC(=O)[C@H](Cc2c[nH]c3ccccc23)NC(=O)[C@@H]2CSC(C)(C)N2C1=O` (cyclo(F[X1]LT[X1]I[X1]W)) had a GI50 of 1.47 µM, an LC50 of 1.83 µM and a TGI of 1.65 µM. Moreover, in the test with MDA-MB-231 [2], the GI50 stood at 1650 nM, the LC50 came out at 2.2 µM and the TGI stood at 1.93 µM. Besides, in the test on HT-29 [3], the GI50 turned out to be 1380 nM, the LC50 is 2.11 µM and the TGI is 1740 nM.

As for `CC[C@H](C)[C@@H]1NC(=O)[C@@H]2CSC(C)(C)N2C(=O)[C@H]([C@@H](C)O)NC(=O)[C@H](CC(C)C)NC(=O)[C@@H]2CCCN2C(=O)[C@H](Cc2ccccc2)NC(=O)[C@H](Cc2c[nH]c3ccccc23)NC(=O)[C@@H]2CCCN2C1=O` (cyclo(FPLT[X1]IPW)), in the test on A549 [1], the GI50 is more than 10 µM, the LC50 is more than 10 µM and the TGI was more than 10 µM. In the test with MDA-MB-231 [2], the GI50 turned out to be 2700 nM, the LC50 came to 6.01 µM and net growth stopped (TGI) at 4.11 µM. Further, in the test with HT-29 [3], the GI50 stood at 4010 nM, the LC50 was 4.61 µM and the TGI was determined as 4210 nM.

Usually IC50 stands for the concentration needed to halve the response being measured. Read a high IC50 as weaker potency. Take `CC[C@H](C)[C@@H]1NC(=O)[C@@H]2CCCN2C(=O)[C@H]([C@@H](C)O)NC(=O)[C@H](CC(C)C)NC(=O)[C@@H]2CCCN2C(=O)[C@H](Cc2ccccc2)NC(=O)[C@H](Cc2c[nH]c3ccccc23)NC(=O)[C@@H]2CCCN2C1=O` [STYLISSAMIDE X] (cyclo(FPLTPIPW)): the IC50 in the test with HT-29 [4], with MDA-MB-231 [5] and with A549 [6] was 84 nM each time. In addition, the figures for the GI50 in the test with A549 [1], with MDA-MB-231 [2] and with HT-29 [3] were 0.44 µM, 515 nM and 462 nM, respectively. For the same compound, the LC50 with A549 [1], with MDA-MB-231 [2] and in the test with HT-29 [3] was more than 10.5 µM throughout. For the same compound, the TGI in the test on A549 [1] was 1.16 µM; with MDA-MB-231 [2], 1.47 µM; with HT-29 [3], 672 nM.

With `CC[C@H](C)[C@@H]1NC(=O)[C@@H]2CSC(C)(C)N2C(=O)[C@H]([C@@H](C)O)NC(=O)[C@H](CC(C)C)NC(=O)[C@@H]2CSC(C)(C)N2C(=O)[C@H](Cc2ccccc2)NC(=O)[C@H](Cc2c[nH]c3ccccc23)NC(=O)[C@@H]2CCCN2C1=O` (cyclo(F[X1]LT[X1]IPW)), in the test on A549 [1], the concentration for 50% growth inhibition (GI50) is 3.45 µM, the LC50 is more than 9.58 µM and the TGI was determined as 7.85 µM. Moreover, in the test on MDA-MB-231 [2], the GI50 is 1720 nM, the LC50 came out at 2.3 µM and net growth stopped (TGI) at 2.01 µM. In the test on HT-29 [3], this compound displayed a GI50 of 1820 nM, an LC50 of 2.68 µM and a concentration for total growth inhibition (TGI) of 2200 nM.

With `CC[C@H](C)[C@@H]1NC(=O)[C@@H]2CSC(C)(C)N2C(=O)[C@H]([C@@H](C)O)NC(=O)[C@H](CC(C)C)NC(=O)[C@@H]2CCCN2C(=O)[C@H](Cc2ccccc2)NC(=O)[C@H](Cc2c[nH]c3ccccc23)NC(=O)[C@@H]2CSC(C)(C)N2C1=O` (cyclo(FPLT[X1]I[X1]W)), the results for the GI50 with A549 [1], in the test on MDA-MB-231 [2] and in the test on HT-29 [3] were 3.64 µM, 2200 nM and 1820 nM, respectively. The LC50 with A549 [1] was more than 9.58 µM; with MDA-MB-231 [2], 5.08 µM; in the test on HT-29 [3], 2.39 µM. The results for the TGI in the test with A549 [1], in the test with MDA-MB-231 [2] and with HT-29 [3] were more than 9.58 µM, 3.35 µM and 2110 nM, respectively.

As for `CC[C@H](C)[C@@H]1NC(=O)[C@@H]2CCCN2C(=O)[C@H]([C@@H](C)O)NC(=O)[C@H](CC(C)C)NC(=O)[C@@H]2CSC(C)(C)N2C(=O)[C@H](Cc2ccccc2)NC(=O)[C@H](Cc2c[nH]c3ccccc23)NC(=O)[C@@H]2CCCN2C1=O` (cyclo(F[X1]LTPIPW)), in the test on A549 [1], the GI50 was more than 10 µM, the LC50 was more than 10 µM and the TGI is more than 10 µM. In the test with MDA-MB-231 [2], halving of growth (GI50) required 6110 nM, the LC50 was more than 10 µM and the TGI was more than 10 µM. Moreover, in the test with HT-29 [3], growth was halved (GI50) at 5710 nM, the LC50 is more than 10 µM and the TGI is more than 10000 nM.
